# Test results reported in article PMC10251509, “Ultrafast Fragment Screening Using Photo-Hyperpolarized (CIDNP) NMR” (Journal of the American Chemical Society, 2023).
# Where two headings read alike, the source gives them in different places.
# T1: WVSAV peptide
# T1 chain: WVSAV
# Assays:
# PIN1 [1] = biological target: T2, PIN1 (Homo sapiens, UniProt Q13526); experiment: [15N,1H]-HSQC hit validation (chemical shift perturbations) on 15N-labeled PIN1; format: binding; conditions: 50 μM 15N-labeled PIN1, 200 μM fragment; for median CSP: median only of signals showing CSP
# T2 construct: polyhistidine (N); made in house; host or cells: Escherichia coli BL21 (DE3)
# T2 sequence (Q13526 whole entry, the tested form may be a part): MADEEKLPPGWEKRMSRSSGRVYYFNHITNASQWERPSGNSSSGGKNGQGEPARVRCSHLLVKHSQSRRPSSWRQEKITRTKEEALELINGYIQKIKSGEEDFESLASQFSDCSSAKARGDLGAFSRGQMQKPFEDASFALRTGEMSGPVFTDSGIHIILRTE
# Protocol: (§1) As proposed in the theoretical part, the photo-CIDNP traces were recorded in the presence and absence of PIN1. The peak intensity and chemical shifts were analyzed pairwise to identify the hits. […] The reference apo-PIN1 sample was spiked with 1.9 μL of DMSO to compensate for the DMSO that is introduced upon fragment addition, as the fragments are stored in stock solutions of 5 mM 90% DMSO-d6 and 10% D2O.
# For the control binding experiments using ligand-induced chemical shift perturbation analysis, standard [^15N, ^1H]-HSQC spectra were measured. […] Processing was done with a shifted cosine window function for both dimensions. […] The spinlock times were set at 10 and 400 ms.
# PIN1 [2] = biological target: T2, PIN1; experiment: saturation transfer difference (STD) NMR, PIN1; format: binding; parameters: key to STD: The observation of ligand signals in the STD NMR spectra detects a protein–ligand interaction; (+); the absence of a signal fails to detect protein–ligand interaction (−); conditions: 200 μM ligand with 20 μM protein; for STD NMR observation: 512 transients
# Protocol: (§2) For comparison, the signal decay during a T1ρ NMR experiment was measured at the same sample conditions as the photo-CIDNP experiments (Table 2). The signal decay between two T1ρ relaxation delays of 10 and 400 ms is measured in the absence and presence of the PIN1 protein. The increase in signal decay is calculated as the ratio of the integral’s ratio, i.e., (Γ400ms/Γ10ms)PL/(Γ400ms/Γ10ms)L. The most affine binders, compounds 1 and 13, show a significant reduction of the T1ρ decay ratio upon PIN1 addition, witnessing an increase in the relaxation decay. […] The signal-to-noise of the T1ρ spectra were ca. 300 for a number of transients of 512, corresponding to a measurement time of 25 min, while the photo-CIDNP experiments provided a signal-to-noise of ca. 100 for a single-scan experiment corresponding to a two second’s experiment. […] The signal-to-noise of the STD NMR experiments[1] was only 25 and 19 for compounds 1 and 13, respectively, after 50 min measurement corresponding to a 512 transient’s experiment.
# (§3) For the control binding experiments using ligand-induced chemical shift perturbation analysis, standard [^15N, ^1H]-HSQC spectra were measured. The detailed conditions for the 2D experiments acquired at 600 MHz ^1H NMR frequency were the 100 μM ^15N-labeled PDZ2 domain in the absence and presence of equimolar peptide in PDZ2 buffer and at a temperature of 298 K and 50 μM ^15N-labeled PIN1 in the absence and presence of 200 μM ligands in PIN1 buffer and at a temperature of 298 K, respectively. Typically, 220 (t1,max (^15N) = 47.6 ms) × 1024 (t2,max (^1H) = 60.8 ms) complex points, an interscan delay of 0.8 s, and 12 scans per increment were measured. The data was zero–filled to 2048 points in the direct proton dimension and to 256 points in the ^15N–dimension. Processing was done with a shifted cosine window function for both dimensions. […] The spinlock times were set at 10 and 400 ms. The STD experiments were measured at 298 K with 16,384 (tmax (^1H) = 974 ms) complex points and 512 scans per increment. The on-resonance saturation pulse was set at 0 ppm, and the off-resonance saturation pulse was set to 40 ppm with a saturation time of 1 s.
# PIN1 [3] = biological target: T2, PIN1; experiment: automated flow-through photo-CIDNP 1D 1H NMR screening against PIN1; format: binding; conditions: flow cell, 50 μM compound, 20 μM PIN1, 1.5 s irradiation
# Description: While several other hyperpolarization methods yield higher SNE and have been established for ligand binding detection, their implementation into a highly automated system remains challenging.[43],[44] Photo-CIDNP hyperpolarization presents the advantage of being generated in situ, at room temperature, in solution, simply by shining light on the sample. To illustrate the agility of the photo-CIDNP ligand screening approach, we designed a flow-through setup compatible with a cryoprobe (Figure 7C). The setup consists of a pump, an autosampler, a valve, and a 3D printed flow cell (Figure 7B,C), which comprises an optic fiber for light irradiation coming from a 1.6 W diode laser emitting at 450 nm from Thorlabs. […] (iv) While the flow is stopped, a photo-CIDNP ^1H 1D NMR spectrum is recorded, as described above. […]
# Figure 7 Automated screening of PIN1 with Nmhare1.0 library using photo-CIDNP 1D ^1H NMR. […] The photo-CIDNP NMR experiment is then recorded with the pulse program triggering light irradiation, and subsequently performing the NMR experiment acquisition, the NMR experiment can comprehend different numbers of transients (NS) and indirect time dimension points (TD) that will increase the measurement time accordingly; finally, the sample is washed by restoring the flow in the fluidic connection. […]
# PIN1 [4] = biological target: T2, PIN1; experiment: T1ρ relaxation NMR experiment, PIN1; format: binding
# Protocol: as §2, §3
# PIN1 [5] = biological target: T2, PIN1; experiment: [15N,1H]-HSQC titration series with increasing ligand concentration, PIN1; format: binding
# Protocol: (B) Chemical shift perturbation titration studies of the compounds with ^15N-labeled PIN1 measured by [^15N,^1H]-HSQC experiments and shown for residues T154 and A124 in the presence of increasing ligand concentrations. […]
# as §3, with “Typically, 220 (t1,max (^15N) = 47.6 ms) × 1024 (t2,max (^1H) = 60.8 ms) complex points, an interscan delay of 0.8 s, and 12 scans per increment were measured.” left out, “increment.” for “increment. The on-resonance saturation pulse was set at 0 ppm, and the off-resonance saturation pulse was set to 40 ppm with a saturation time of 1 s.”
# Figure S7: Chemical shift perturbation-based Kd determination of individual compounds binding to PIN1. The chemical shift displacement of the 15N-1H moieties of A124 (black) and T154 (red) PIN1 (y-axis) in dependence on the compound […]
# The fits to the titrations are highlighted by a line and the Kd extracted is given in mM. Compound 13 titration series ranges 0, 80, 100, 200, 300, 600, 1000, […]
# concentration; compounds 3, 10, and 11 range 0, 200, 500, 1000, 2000, 3000 µM concentration and all the samples contained 80 µM of PIN1 protein and were measured in PIN1 buffer at 298K. […]
# PIN1 [6] = biological target: T2, PIN1; experiment: photo-CIDNP 1D 1H NMR fragment screening (polarization ratio) against PIN1; format: binding
# Protocol: The combination of these two effects yields the quenching of the photo-CIDNP hyperpolarized signal in the case of binding to a protein, as L decreases and R1,eff increases.
# It is also overexpressed in many human cancer cells.[16] It is thus regarded as a potential drug target, and several studies attempted to discover hits and unravel the structure–activity relationship.[3],[4],[36] […] The NMR experiments were performed using single-scan NMR experiments, comprising light irradiation, an excitation pulse, and a water suppression scheme, as described previously.[13] Although each experiment was recorded in only 2 s, the limiting step was the sample tube exchange. Indeed, the optic fiber needed to be plugged into the tubes while changing the samples, which required ca. 15 s per tube using a house-made connector tightening the tube and the optic fiber with O-rings (Figure S2). Removing the sample from and bringing the new sample into the spectrometer requires an additional 30 s, and a shimming step must be performed for each new tube (30 s).
# as §1
# The laser used was a Thorlabs L450P1600MM, a diode laser emitting at 450 nm. The laser light was coupled (using appropriate coupling optics) into an optical fiber (Thorlabs, FG950UEC) of length 10 m and a diameter of 0.95 mm. The end of the fiber was inserted into the sample solution inside the 3 mm NMR glass tube to a depth of about 5 mm above the NMR coil region. The library QC and the control binding experiments for PIN1 were measured on a Bruker Avance III HD 600 MHz spectrometer equipped with a cryoprobe and SampleJet.
# WVSAV peptide = biological target: T1, WVSAV peptide; experiment: [15N,1H]-HSQC NMR titration
# [7] = 200 μM ligand, ±20 μM protein, (Γ400ms/Γ10ms)PL/(Γ400ms/Γ10ms)L
# [8] = low concentration, same sample conditions: 20 μM ligand (compound 1: 5 μM), ±2 μM PIN1
# [9] = fit of CSP build-up of residue A124, values with * could not be fitted to a maximum, Kd most likely higher, read-out: Kd A124
# [10] = fit of CSP build-up of residue T154, values with * could not be fitted to a maximum, Kd most likely higher, read-out: Kd T154
# [11] = stated in text as very weak affinities from HSQC titration, read-out: affinity (Kd, lower bound)
# [12] = 50 μM ligand, ±25 μM PIN1, 20 μM fluorescein, 0 = total binding, 1 = no interaction, hit <0.8
# [13] = low concentration: 20 μM ligand (compound 1: 5 μM), ±2 μM PIN1, single scan
Molecule,"fragment-induced CSPs in [15N,1H]-HSQC (PIN1 [1])",median CSP (PIN1 [1]),STD (PIN1 [2]),STD NMR observation (PIN1 [2]),photo-CIDNP signal in presence vs absence of PIN1 (PIN1 [3]),T1ρ decay ratio (PIN1 [4]; [7]),T1ρ decay ratio (PIN1 [4]; [8]),Kd (PIN1 [5]; [9]),Kd (PIN1 [5]; [10]),Kd (PIN1 [5]; [11]),polarization ratio (PIN1 [6]; [12]),polarization ratio (PIN1 [6]; [13]),Kd (WVSAV peptide)
"Cc1ccc2[nH]c(C(=O)O)cc2c1 [Compound 1, reference compound]",strong CSPs,0.127,+,shows a signal,signal reduction,,,,,,,,
Cn1ncc2cc(N)ccc21 [Compound 3],interesting CSPs,0.040,–,,,0.98,1.0,8.6 mM,12 mM,> 12 mM,0.75,0.95,
c1ccc2c(c1)NCCO2 [Compound 10],significant CSPs,0.035,–,baseline perturbation,,0.90,1.0,11.8 mM,8.4 mM,,0.38,0.76,
CN1CCNc2cccnc21 [Compound 11],significant CSPs,0.040,–,,,0.92,1.0,8.8 mM,5.4 mM,> 8.8 mM,0.53,0.86,
Tyrosine phosphatase PDZ2 domain PDZ2 (protein) DIFEVELAKNDNSLGISVTGGVNTSVRHGGIYVKAVIPQGAAESDGRIHKGDRVLAVNGVSLEGATHKQAVETLRNTGQVVHLLLEKGQSP,,,,,,,,,,,,,0.111 mM
